# Target: T1, factor D (Homo sapiens, UniProt P00746)
# T1 construct: made in house; host or cells: E. coli
# Test: factor D inhibition assay of Biological Example 2
# Format: biochemical
# T1 sequence (P00746 26-253): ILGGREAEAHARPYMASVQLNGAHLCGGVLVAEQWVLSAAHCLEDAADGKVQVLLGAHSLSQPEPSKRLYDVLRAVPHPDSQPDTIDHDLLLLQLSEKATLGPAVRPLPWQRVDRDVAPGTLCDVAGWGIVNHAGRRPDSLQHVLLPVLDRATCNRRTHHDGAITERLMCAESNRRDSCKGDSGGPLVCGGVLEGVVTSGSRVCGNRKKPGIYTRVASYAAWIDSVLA
row,IC50 [µM],SMILES
1,0.022,"NCc1cccc(-c2cc(COc3ccccc3CC(=O)O)cc(NCC3CC3)c2)c1 [Example 139, 2-(2-((3′-(Aminomethyl)-5-((cyclopropylmethyl)amino)-[1,1′-biphenyl]-3-yl)methoxy)phenyl)acetic acid]"
2,0.003,COCc1cc(COc2ccccc2CC(=O)O)cc(-c2cccc([C@@H](C)N)c2)c1 [Example 120-C]
3,0.008,"NC(CF)c1cccc(-c2cccc(COc3ccccc3CC(=O)O)c2)c1F (stereo not drawn) [Example 215, 2-(2-((3′-(1-amino-2-fluoroethyl)-2′-fluoro-[1,1′-biphenyl]-3-yl)methoxy)phenyl)acetic acid]"
4,0.004,"C[C@@H](N)c1cccc(-c2cc(COc3ccccc3CC(=O)O)c(F)c(NCC3CCCO3)c2)c1F (mixture of isomers) [Example 221 b), 2-(2-((3′-((R)-1-aminoethyl)-2′,4-difluoro-5-(((tetrahydrofuran-2-yl)methyl)amino)-[1,1′-biphenyl]-3-yl)methoxy)phenyl)acetic acid]"
5,0.012,C[C@@H](N)c1cccc(-c2cc(COc3ccccc3CC(=O)O)cc(OCc3cccnc3)c2)c1F [Example 214-L]
6,0.023,"NCc1cccc(-c2ccc(F)c(COc3ccccc3CC(=O)O)c2)c1 [Example 166, 2-(2-((3′-(Aminomethyl)-4-fluoro-[1,1′-biphenyl]-3-yl)methoxy)phenyl)acetic acid]"
7,0.036,"CCc1sc(-c2cc(F)cc(CN)c2)nc1C(=O)Nc1ccccc1CC(=O)O [Example 36-C, 2-(2-(2-(3-(Aminomethyl)-5-fluorophenyl)-5-ethylthiazole-4-carboxamido)phenyl)acetic acid]"
8,0.126,COc1cccc(CC(=O)O)c1NC(=O)c1cccc(-c2cc(F)cc(CN)c2)c1 [Example 21-K]
9,0.002,"NCc1cccc(-c2cc(COc3ccccc3CC(=O)O)cc(NCC3CCCO3)c2F)c1 (racemic) [Example 156-B, (±)-2-(2-((3′-(Aminomethyl)-6-fluoro-5-(((tetrahydrofuran-2-yl)methyl)amino)-[1,1′-biphenyl]-3-yl)methoxy)phenyl)acetic acid]"
10,0.013,C[C@@H](N)c1cccc(-c2cc(NCC3CC3)c3c(c2)C(Oc2ccccc2CC(=O)O)CCC3)c1F (stereo partly drawn) [Example 216-Z]
11,0.011,"C[C@@H](N)c1cccc(-c2cc(CCC3CCCC3)cc(COc3ccccc3CC(=O)O)c2)c1F [Example 237, (R)-2-(2-((3′-(1-aminoethyl)-5-(2-cyclopentylethyl)-2′-fluoro-[1,1′-biphenyl]-3-yl)methoxy)phenyl)acetic acid]"
12,0.009,"N[C@H](CO)c1cccc(-c2cc(COc3ccccc3CC(=O)O)cc(OC[C@H]3CCCO3)c2)c1F [Example 231-F, 2-(2-((3′-((S)-1-amino-2-hydroxyethyl)-2′-fluoro-5-(((R)-tetrahydrofuran-2-yl)methoxy)-[1,1′-biphenyl]-3-yl)methoxy)phenyl)acetic acid]"
13,0.008,CC(O)c1cc(COc2ccccc2CC(=O)O)cc(-c2cccc([C@@H](C)N)c2F)c1 (stereo partly drawn) [Example 120-F]
14,0.118,NCc1cc(F)cc(-c2cccc(C(=O)Nc3ccc(Cl)cc3CC(=O)O)n2)c1 [Example 21-P]
15,0.004,"C[C@@H](N)c1cccc(-c2cc(COc3ccccc3CC(=O)O)cc(NC[C@H]3CCCO3)c2)c1F [Example 153, 2-(2-((3′-((R)-1-Aminoethyl)-2′-fluoro-5-((((R)-tetrahydrofuran-2-yl)methyl)amino)-[1,1′-biphenyl]-3-yl)methoxy)phenyl)acetic acid]"
16,0.004,CC(C)Cn1cc(-c2cc(COc3ccccc3CC(=O)O)cc(-c3cccc(CN)c3)c2)cn1 [Example 209-D]
17,0.019,Cc1cc(Nc2cc(C(=O)Nc3ccccc3CC(=O)O)cc(-c3cc(F)cc(CN)c3)c2)n(C)n1 [Example 79-I]
18,0.004,NCc1cccc(-c2cc(COc3ccccc3CC(=O)O)cc(C(NC(=O)c3ccccc3)C(F)(F)F)c2)c1 (stereo not drawn) [Example 208-D]
19,1.74,"CC(O)c1ccc(NC(=O)c2cccc(-c3cc(F)cc(CN)c3)c2)c(CC(=O)O)c1 (stereo not drawn) [Example 24, 2-(2-(3′-(Aminomethyl)-5′-fluoro-[1,1′-biphenyl]-3-ylcarboxamido)-5-(1-hydroxyethyl)phenyl)acetic acid]"
20,0.086,NCc1cc(F)cc(-c2cccc(C(=O)Nc3c(Br)cccc3CC(=O)O)n2)c1 [Example 21-E]
21,0.003,"NCc1cccc(-c2ccc3c(c2)C(Oc2ccccc2CC(=O)O)CCC3)c1 (single isomer, unassigned) [175 b) (tr = 4.1 min), (+) or (−)-(2-((7-(3-(aminomethyl)phenyl)-1,2,3,4-tetrahydronaphthalen-1-yl)oxy)phenyl)acetic acid]"
22,0.814,"NC(CCO)c1cccc(-c2cccc(C(=O)Nc3ccccc3CC(=O)O)c2)c1 (racemic) [Example 87, (±)-2-(2-(3′-(1-amino-3-hydroxypropyl)-[1,1′-biphenyl]-3-ylcarboxamido)phenyl)acetic acid]"
23,0.008,N[C@H](CO)c1cccc(-c2cccc(COc3ccccc3CC(=O)O)c2)c1F [Example 142-E]

row,IC50 [µM],SMILES
1,0.005,"NC(CF)c1cccc(-c2cc(COc3ccccc3CC(=O)O)cc(OCC3CC3)c2)c1F (racemic) [Example 206, (±)-2-(2-((3′-(1-Amino-2-fluoroethyl)-5-(cyclopropylmethoxy)-2′-fluoro-[1,1′-biphenyl]-3-yl)methoxy)phenyl)acetic acid]"
2,0.018,"N=C(N)c1cccc(-c2cccc(COc3ccccc3CC(=O)O)c2)c1 [Example 192-B, 2-(2-((3′-Carbamimidoyl-[1,1′-biphenyl]-3-yl)methoxy)phenyl)acetic acid]"
3,0.047,Cc1ccc(CC(=O)O)c(NC(=O)c2cccc(-c3cc(F)cc(CN)c3)c2)c1 [Example 21-B]
4,0.006,"NCc1cccc(-c2cc(N3CCN(c4ccccc4)CC3)cc(C(=O)Nc3ccccc3CC(=O)O)n2)c1 [Example 51, 2-(2-(6-(3-(Aminomethyl)phenyl)-4-(4-phenylpiperazin-1-yl)picolinamido)phenyl)acetic acid]"
5,1.67,"CC(C(=O)O)c1ccccc1OCc1cccc(-c2cccc(CN)c2)c1 (stereo not drawn) [Example 290, 2-(2-((3′-(aminomethyl)-[1,1′-biphenyl]-3-yl)methoxy)phenyl)propanoic acid]"
6,0.003,"NCc1cccc(-c2cc(COc3ccccc3CC(=O)O)cc3c2OCO3)c1 [Example 126-B, 2-(2-((7-(3-(Aminomethyl)phenyl)benzo[d][1,3]dioxol-5-yl)methoxy)phenyl)acetic acid]"
7,0.009,"COCCNc1cc(COc2ccccc2CC(=O)O)cc(-c2cccc([C@@H](C)N)c2F)c1 [Example 223-B, (R)-2-(2-((3′-(1-aminoethyl)-2′-fluoro-5-((2-methoxyethyl)amino)-[1,1′-biphenyl]-3-yl)methoxy)phenyl)acetic acid]"
8,0.013,"CC(O)c1cc(COc2ccccc2CC(=O)O)cc(-c2cccc([C@H](N)CO)c2)c1 (single isomer, unassigned) [116-E b) (tr = 5.7 min)]"
9,0.34,"Cc1ccc(-c2cccc([C@H](C)N)c2F)cc1COc1ccccc1CC(=O)O [Example 274, (S)-2-(2-((3′-(1-aminoethyl)-2′-fluoro-4-methyl-[1,1′-biphenyl]-3-yl)methoxy)phenyl)acetic acid]"
10,0.006,C[C@H](N)c1cccc(-c2cc(COc3ccccc3CC(=O)O)cc(NCC3CCCC3)c2)c1F [Example 216-C]
11,0.057,"NCc1cc(F)cc(-c2csc(C(=O)Nc3ccccc3CC(=O)O)n2)c1 [Example 28-B, 2-(2-(4-(3-(aminomethyl)-5-fluorophenyl)thiazole-2-carboxamido)phenyl)acetic acid]"
12,0.056,"NCc1cccc(-c2cccc(COc3ccccc3CC(=O)O)c2)c1O [Example 144-C, 2-(2-((3′-(Aminomethyl)-2′-hydroxy-[1,1′-biphenyl]-3-yl)methoxy)phenyl)acetic acid]"
13,0.009,COCCc1cc(COc2ccccc2CC(=O)O)cc(-c2cccc([C@@H](C)N)c2F)c1 [Example 120-V]
14,0.021,"NCc1cccc(-c2ccc(C(F)(F)F)c(COc3ccccc3CC(=O)O)c2)c1 [Example 165, 2-(2-((3′-(Aminomethyl)-4-(trifluoromethyl)-[1,1′-biphenyl]-3-yl)methoxy)phenyl)acetic acid]"
15,0.017,"N[C@H](CO)c1cccc(-c2ccc(OC(F)(F)F)c(COc3ccccc3CC(=O)O)c2)c1 [Example 188, (S)-2-(2-((3′-(1-Amino-2-hydroxyethyl)-4-(trifluoromethoxy)-[1,1′-biphenyl]-3-yl)methoxy)phenyl)acetic acid]"
16,2.24,"NCc1cc(F)cc(-c2cc(C(=O)O)cc(C(=O)Nc3ccccc3CC(=O)O)c2)c1 [Example 95-B, 3′-(Aminomethyl)-5-((2-(carboxymethyl)phenyl)carbamoyl)-5′-fluoro-[1,1′-biphenyl]-3-carboxylic acid]"
17,0.01,"C[C@@H](N)c1cccc(-c2cc(COc3ccccc3CC(=O)O)cc(NCC3(C)CC3)c2)c1F [Example 227, (R)-2-(2-((3′-(1-aminoethyl)-2′-fluoro-5-(((1-methylcyclopropyl)methyl)amino)-[1,1′-biphenyl]-3-yl)methoxy)phenyl)acetic acid]"
18,0.108,Cc1ccc(COc2ccccc2CC(=O)O)cc1-c1cccc([C@H](N)CO)c1 [Example 116-K]
19,0.109,Cc1cccc(CC(=O)O)c1NC(=O)c1cccc(-c2cc(F)cc(CN)c2)c1 [Example 21-C]
20,1.12,N[C@H](CCO)c1cccc(-c2cccc(COc3ccccc3CC(=O)O)c2)n1 [Example 190-H]
21,0.005,"NCc1cccc(-c2cc(COc3ccccc3CC(=O)O)cc(OC[C@H]3CCCO3)c2)c1 [Example 135, (R)-2-(2-((3′-(Aminomethyl)-5-((tetrahydrofuran-2-yl)methoxy)-[1,1′-biphenyl]-3-yl)methoxy)phenyl)acetic acid]"
22,0.013,"COC(C)c1cc(COc2ccccc2CC(=O)O)cc(-c2cccc([C@@H](C)N)c2)c1 (mixture of isomers) [Example 119-B, 2-(2-((3′-((R)-1-Aminoethyl)-5-(1-methoxyethyl)-[1,1′-biphenyl]-3-yl)methoxy)phenyl)acetic acid (mixture of diastereomers)]"

# From patent US20160145247A1, “Aminomethyl-Biaryl Derivatives Complement Factor D inhibitors and uses thereof” (NOVARTIS AG, priority 2013, published 2016)
